According to patent US12043600B2, “Microbiocidal compounds” (SYNGENTA CROP PROTECTION AG, priority 2018, dated 2024):

How the values were obtained:
[1] = test system: Glomerella lagenarium (Colletotrichum lagenarium); test: Glomerella lagenarium (Colletotrichum lagenarium)/Liquid Culture (Anthracnose); type: cell-based; settings: Colletotrichum orbiculare, liquid culture, compared to untreated control
[2] = test system: Magnaporthe grisea (Pyricularia oryzae); test: whole plant or invertebrate; type: in vivo; settings: foliar, read-out: control of Magnaporthe grisea
[3] = test system: Phaeosphaeria nodorum (Septoria nodorum); test: Phaeosphaeria nodorum (Septoria nodorum)/Wheat/Leaf Disc Preventative (Glume Blotch); type: in vivo; settings: Parastagonospora nodorum, foliar, wheat leaf disc preventative, compared to untreated control
Procedure: Wheat leaf segments cv. Kanzler are placed on agar in a multiwell plate (24-well format) and sprayed with the formulated test compound diluted in water. The leaf disks are inoculated with a spore suspension of the fungus 2 days after application. The inoculated test leaf disks are incubated at 20° C. and 75% rh under a light regime of 12 h light/12 h darkness in a climate cabinet and the activity of a compound is assessed as percent disease control compared to untreated when an appropriate level of disease damage appears in untreated check leaf disks (5-7 days after application).

Plasmopara viticola = test: whole plant or invertebrate; type: in vivo; settings: foliar, read-out: control of Plasmopara viticola
[4] = test system: Mycosphaerella arachidis (Cercospora arachidicola); test: Mycosphaerella arachidis (Cercospora arachidicola)/Liquid Culture (Early Leaf Spot); type: cell-based; settings: liquid culture, compared to untreated control
Procedure: (§1) Conidia of the fungus from cryogenic storage are directly mixed into nutrient broth (PDB potato dextrose broth). After placing a (DMSO) solution of test compound into a microtiter plate (96-well format), the nutrient broth containing the fungal spores is added.

Phytophthora infestans = test: whole plant or invertebrate; type: in vivo; settings: in Solanum lycopersicum, foliar, read-out: control of Phytophthora infestans
[5] = test system: Puccinia recondita f. sp. tritici; test: Puccinia recondita f. sp. tritici/Wheat/Leaf Disc Preventative (Brown Rust); type: in vivo; settings: foliar, 200 ppm, wheat leaf disc preventative, compared to untreated control, read-out: control of Puccinia recondita f. sp. tritici
[6] = test system: Mycosphaerella graminicola (Septoria tritici); test: Mycosphaerella graminicola (Septoria tritici)/Liquid Culture (Septoria Blotch); type: cell-based; settings: Zymoseptoria tritici; 20 ppm; liquid culture; compared to untreated control
Procedure: Conidia of the fungus from cryogenic storage are directly mixed into nutrient broth (PDB potato dextrose broth). After placing a (DMSO) solution of test compound into a microtiter plate (96-well format), the nutrient broth containing the fungal spores is added. […] The data are presented as the percentage of disease control of each compound for the biological tests against G. lagenarium (Example B3), P. recondita preventative (Example B13), P. teres (Example B15) and M. graminicola (Example B19) as described above. The testing rates of each biological test is specifically described in table C1 below.

[7] = test system: Botryotinia fuckeliana (Botrytis cinerea); test: Botryotinia fuckeliana (Botrytis cinerea)/Liquid Culture (Gray Mould); type: cell-based; settings: liquid culture, compared to untreated control
Procedure: Conidia of the fungus from cryogenic storage are directly mixed into nutrient broth (Vogels broth). After placing a (DMSO) solution of test compound into a microtiter plate (96-well format), the nutrient broth containing the fungal spores is added.

[8] = test system: Monographella nivalis (Microdochium nivale); test: Monographella nivalis (Microdochium nivale)/Liquid Culture (Foot Rot Cereals); type: cell-based; settings: liquid culture, compared to untreated control
Procedure: as §1

Phakopsora pachyrhizi = test: Phakopsora pachyrhizi/Soybean/Preventative (Soybean Rust); type: in vivo; settings: foliar, 288 h, 200 ppm, soybean leaf disc preventative, compared to untreated control, read-out: control of Phakopsora pachyrhizi
[9] = test system: Puccinia recondita f. sp. tritici; test: Puccinia recondita f. sp. tritici/Wheat/Leaf Disc Curative (Brown Rust); type: in vivo; settings: foliar, wheat leaf disc curative, compared to untreated control
Procedure: Wheat leaf segments cv. Kanzler are placed on agar in multiwell plates (24-well format). The leaf segments are inoculated with a spore suspension of the fungus. Plates are stored in darkness at 19° C. and 75% rh. The formulated test compound diluted in water is applied 1 day after inoculation. The leaf segments are incubated at 19° C. and 75% rh under a light regime of 12 h light/12 h darkness in a climate cabinet and the activity of a compound is assessed as percent disease control compared to untreated when an appropriate level of disease damage appears in untreated check leaf segments (6-8 days after application).

[10] = test system: Blumeria graminis f. sp. tritici (Erysiphe graminis f. sp. tritici); test: Blumeria graminis f. sp. tritici/Wheat/Leaf Disc Preventative (Powdery Mildew on Wheat); type: in vivo; settings: foliar, wheat leaf disc preventative, compared to untreated control
Procedure: Wheat leaf segments cv. Kanzler are placed on agar in a multiwell plate (24-well format) and sprayed with the formulated test compound diluted in water. The leaf disks are inoculated by shaking powdery mildew infected plants above the test plates 1 day after application. The inoculated leaf disks are incubated at 20° C. and 60% rh under a light regime of 24 h darkness followed by 12 h light/12 h darkness in a climate chamber and the activity of a compound is assessed as percent disease control compared to untreated when an appropriate level of disease damage appears on untreated check leaf segments (6-8 days after application).

Row | SMILES | inhibition of growth at 20 ppm [1] [%] | pest or weed control at 200 ppm [2] [%] | pest or weed control at 200 ppm [3] [%] | pest or weed control at 200 ppm (Plasmopara viticola) [%] | inhibition of growth at 20 ppm [4] [%] | pest or weed control at 200 ppm (Phytophthora infestans) [%] | pest or weed control at 200 ppm [5] [%] | inhibition of growth at 20 ppm [6] [%] | inhibition of growth at 20 ppm [7] [%] | inhibition of growth at 20 ppm [8] [%] | melting point [°C] | pest or weed control at 200 ppm (Phakopsora pachyrhizi) [%] | pest or weed control at 200 ppm [9] [%] | pest or weed control at 200 ppm [10] [%]
1 | CCCc1nn(-c2ccc(C)c(O/C(=C\OC)C(=O)OC)c2)cc1Cl [Compound E-6, methyl (Z)-2-[5-(4-chloro-3-propyl-pyrazol-1-yl)-2-methyl-phenoxy]-3-methoxy-prop-2-enoate] | ≥ 80 | ≥ 80 | ≥ 80 | ≥ 80 | ≥ 80 | ≥ 80 | ≥ 80 | ≥ 80 | ≥ 80 | ≥ 80 | – | – | – | –
2 | CO/C=C(\Oc1cc(-n2ccc(CC#N)n2)ccc1C)C(=O)OC [Compound E-33, methyl (Z)-2-[5-[3-(cyanomethyl)pyrazol-1-yl]-2-methyl-phenoxy]-3-methoxy-prop-2-enoate] | ≥ 80 | – | – | ≥ 80 | ≥ 80 | – | ≥ 80 | ≥ 80 | ≥ 80 | ≥ 80 | 120 to 123 | – | – | –
3 | CO/C=C(\Oc1cc(-n2ccc(C)n2)c(OC)cc1C)C(=O)OC [Compound E-37, methyl (Z)-3-methoxy-2-[4-methoxy-2-methyl-5-(3-methylpyrazol-1-yl)phenoxy]prop-2-enoate] | – | – | – | ≥ 80 | ≥ 80 | – | ≥ 80 | ≥ 80 | ≥ 80 | ≥ 80 | 99 to 101 | ≥ 50 | ≥ 80 | –
4 | CO/C=C(\Oc1cc(-n2cc(Br)cn2)ccc1C)C(=O)OC [Compound E-47, methyl (Z)-2-[5-(4-bromopyrazol-1-yl)-2-methyl-phenoxy]-3-methoxy-prop-2-enoate] | ≥ 80 | ≥ 80 | ≥ 80 | ≥ 80 | ≥ 80 | ≥ 80 | ≥ 80 | ≥ 80 | ≥ 80 | ≥ 80 | – | ≥ 50 | ≥ 80 | ≥ 80
5 | CO/C=C(\Oc1cc(-n2cc(C(C)(C)C)cn2)ccc1C)C(=O)OC [Compound E-49, methyl (Z)-2-[5-(4-tert-butylpyrazol-1-yl)-2-methyl-phenoxy]-3-methoxy-prop-2-enoate] | ≥ 80 | ≥ 80 | ≥ 80 | ≥ 80 | ≥ 80 | ≥ 80 | ≥ 80 | ≥ 80 | ≥ 80 | ≥ 80 | – | – | ≥ 80 | –
6 | CO/C=C(\Oc1cc(-n2cc(COC)cn2)ccc1C)C(=O)OC [Compound E-51, methyl (Z)-3-methoxy-2-[5-[4-(methoxymethyl)pyrazol-1-yl]-2-methyl-phenoxy]prop-2-enoate] | ≥ 80 | ≥ 80 | – | ≥ 80 | ≥ 80 | – | ≥ 80 | ≥ 80 | ≥ 80 | ≥ 80 | – | ≥ 50 | ≥ 80 | ≥ 80
7 | CO/C=C(\Oc1cc(-n2ccc(SC(F)(F)F)n2)ccc1C)C(=O)OC [Compound E-61, methyl (Z)-3-methoxy-2-[2-methyl-5-[3-(trifluoromethylsulfanyl)pyrazol-1-yl]phenoxy]prop-2-enoate] | ≥ 80 | ≥ 80 | – | ≥ 80 | ≥ 80 | ≥ 80 | ≥ 80 | ≥ 80 | ≥ 80 | ≥ 80 | 137 to 139 | ≥ 50 | – | ≥ 80
8 | CO/C=C(\Oc1cc(-n2ccc(OC)n2)ccc1C)C(=O)OC [Compound E-95, methyl (Z)-3-methoxy-2-[5-(3-methoxypyrazol-1-yl)-2-methyl-phenoxy]prop-2-enoate] | ≥ 80 | – | – | ≥ 80 | ≥ 80 | ≥ 80 | ≥ 80 | ≥ 80 | ≥ 80 | ≥ 80 | 120 to 123 | – | ≥ 80 | ≥ 80
9 | CO/C=C(\Oc1cc(-n2ccc(C(F)F)n2)ccc1C)C(=O)OC [Compound E-96, methyl (Z)-2-[5-[3-(difluoromethyl)pyrazol-1-yl]-2-methyl-phenoxy]-3-methoxy-prop-2-enoate] | ≥ 80 | – | ≥ 80 | ≥ 80 | ≥ 80 | ≥ 80 | ≥ 80 | ≥ 80 | ≥ 80 | ≥ 80 | – | – | ≥ 80 | ≥ 80
10 | CO/C=C(\Oc1cc(-n2ccc(Cl)n2)ccc1C)C(=O)OC [Compound E-100, methyl (Z)-2-[5-(3-chloropyrazol-1-yl)-2-methyl-phenoxy]-3-methoxy-prop-2-enoate] | ≥ 80 | ≥ 80 | ≥ 80 | ≥ 80 | ≥ 80 | ≥ 80 | ≥ 80 | ≥ 80 | ≥ 80 | ≥ 80 | 150 to 152 | – | – | ≥ 80
11 | CO/C=C(\Oc1cc(-n2cc(C)c(C)n2)ccc1C)C(=O)OC [Compound E-116, methyl (Z)-2-[5-(3,4-dimethylpyrazol-1-yl)-2-methyl-phenoxy]-3-methoxy-prop-2-enoate] | ≥ 80 | – | – | ≥ 80 | ≥ 80 | ≥ 80 | ≥ 80 | ≥ 80 | ≥ 80 | ≥ 80 | 155 to 157 | – | ≥ 80 | ≥ 80
